Measurements taken from US20180353461A1, “USE OF CANNABINOIDS AS CERAMIDE-GENERATING ANTICANCER AGENTS IN TUMORS OF THE HEMATOPOIETIC AND LYMPHOID TISSUES” (priority 2014, published 2018).

What was measured:
blasts from AML patients = test: Cell viability of blasts from AML patients (MTT); assay type: cell-based, human
Granulocytes = test: Viability of normal residual granulocytes in bone marrow samples of MM patients (flow cytometry); assay type: cell-based, human; conditions: all doses tested
Text: (§1) Human multiple myeloma cell lines MM1.S, MM1.R, RPMI-8226 (RPMI) and U266 were purchased from American Type Culture Collection [(ATCC), LGC Standards, Manassas, USA]. Human primary cells were obtained from MM patients' bone marrow (BM) and healthy donors' peripheral blood (PB). PB samples were collected from buffy coats and leukapheresis products, previously mobilized with granulocyte colony stimulating factor (G-CSF). Hematopoietic progenitor cells (CD34+) were isolated from leukaphesesis samples, and B (CD19+) and T (CD3+) lymphocytes from buffy coats by positive immunomagnetic separation in the AutoMACS pro separator (Miltenyi Biotec, Bergisch Gladbach, Germany). For this purpose CD34-, CD19- and CD3-MACS microbead Human Kit (Miltenyi Biotec, Bergisch Gladbach, Germany). The purity of all isolated cells was higher than 95% in all cases. […]
(§2) Further, cell viability of bone marrow cell populations from patients was assessed by flow cytometry using 7-amino-actinomycin D [(7-AAD), BD Biosciences] together with a combination of monoclonal antibodies against myeloma-associated antigens (anti-CD56-APC, anti-CD45-Pacific Blue, and anti-CD38-APC-H7 [BD Biosciences]) and antibodies to discriminate the granulomonocytic (anti-CD64-FITC) and lymphocytic (anti-CD45-Pacific Blue) populations. […] Fluorescent intensity was quantified and analyzed using Infinicyt™ Software (Cytognos, Salamanca, Spain). […]

[1] = tested on: CD34+ hematopoietic stem cells; test: Cell viability of CD34+ hematopoietic stem cells, Example 2 (MTT); assay type: cell-based, human
Text: Human primary cells were obtained from LMA patients' bone marrow (BM) and healthy donors' peripheral blood (PB). Hematopoietic progenitor cells (CD34+) were isolated from leukaphesesis samples, and B (CD19+) and T (CD3+) lymphocytes from buffy coats by positive immunomagnetic separation in the AutoMACS pro separator (Miltenyi Biotec, Bergisch Gladbach, Germany). For this purpose CD34-, CD19- and CD3-MACS microbead Human Kit (Miltenyi Biotec, Bergisch Gladbach, Germany).
(§3) Cells lines, CD34+ cells and blast were cultured in 96-well plates (5×10e5 cells per well) with the addition of the indicated concentrations of WIN 55,212-2 or JWH-133 in DMSO or with the solvent alone in triplicate. Also we add myoricin together the cannabinoid WIN-55 to see if this effect reversed. Cell viability was determined by the WST-1 [2-(4-lodophenyl)-3-(4-nitrophenyl)-5-(2,4-disulfophenyl)-2H-tetrazolium] assay as per the manufacturer's instructions (Dojindo Molecular Technologies). Optical densities were measured at 450 nm using a plate reader Multiskan™ Go Microplate (Thermo Fisher Scientific, Waltham, Mass., USA).
Stem cells were treated with WIN-55 or JWH-133 and cell viability was analyzed using MTT assay.

[2] = tested on: KG1 (acute myelogenous leukemia) and HL60 (Human promyelocytic leukemia cells) cell lines; test: Cell viability of AML cell lines (MTT / WST-1 assay); assay type: cell-based; conditions: for cell viability of KG1 and HL60 cell lines as compared to untreated control cells: WIN-55 0.5-50 uM, JWH-133 0.05-1 mM; for concentration from which the cell viability decrease occurs with statistically significant data: FIG. 12 / FIG. 13
Experimental: Human acute myeloid leukemia cell line KG-1 and human acute promyelocytic leukemia cell line HL60 (American Type Culture Collection) were cultured RPMI 1640 medium (Gibco™, Invitrogen, Barcelona, Spain) with 2 mM L-glutamine, 100 IU/m1 penicillin and 100 ug/ml streptomycin (all from Sigma-Aldrich, St. Louis, Mo., USA), and supplemented with 10% (HL60 cell line) or 20% (KG1 cell line and human primary cells) fetal bovine serum [(FBS), [Thermo Fisher Scientific (Waltham, Mass., USA)] in a humidified atmosphere of CO2/air (5%/95%).
The cannabinoid agonists WIN-55,212-2 mesylate ((R)-(+)-[2,3-dihydro-5-methyl-3-(4-morpholinylmethyl)-pyrrolo-[1,2,3]-1,4-benzoxazin-6-yl]-1-naphthalenylmethanone mesylate) and JWH-133 ((6aR,10aR)-3-(1,1-Dimethylbutyl)-6a,7,10,10a-tetrahydro-6,6,9-trimethyl-6H-dibenzo [b,d] pyran) were purchased from Tocris Bioscience (Bristol, UK) and they was added in the indicated concentrations to culture medium for different incubation periods. Control cells were cultured with the relevant amounts of DMSO.
as §3
Firstly, we assessed the effect of cannabinoids WIN-55 and JWH-133 on cell viability. To this end, the cells were treated with increasing concentrations of cannabinoids, WIN-55 (0.5-50 uM) and JWH-133 (0.05-1 mM), for 18 and 48, and viability was analyzed by MTT assays.

B-cells (CD19+) = test: Cell viability of B-cells (MTT); assay type: cell-based, human
[3] = tested on: hematopoietic stem cells (CD34+); test: Cell viability of CD34+ hematopoietic stem cells from healthy donors (MTT); assay type: cell-based, human; conditions: any tested dose
lymphocytes = test: Viability of normal residual lymphocytes in bone marrow samples of MM patients (flow cytometry); assay type: cell-based, human; conditions: for viability of lymphocytes: all doses except the highest dose tested; for dose at which lymphocytes were affected (highest dose tested): bone marrow of MM patients
Text: Human multiple myeloma cell lines MM1.S, MM1.R, RPMI-8226 (RPMI) and U266 were purchased from American Type Culture Collection [(ATCC), LGC Standards, Manassas, USA]. Human primary cells were obtained from MM patients' bone marrow (BM) and healthy donors' peripheral blood (PB). PB samples were collected from buffy coats and leukapheresis products, previously mobilized with granulocyte colony stimulating factor (G-CSF). Hematopoietic progenitor cells (CD34+) were isolated from leukaphesesis samples, and B (CD19+) and T (CD3+) lymphocytes from buffy coats by positive immunomagnetic separation in the AutoMACS pro separator (Miltenyi Biotec, Bergisch Gladbach, Germany). For this purpose CD34-, CD19- and CD3-MACS microbead Human Kit (Miltenyi Biotec, Bergisch Gladbach, Germany). The purity of all isolated cells was higher than 95% in all cases. BM samples were obtained from five MM patients. In all cases, BM plasma cell infiltration was greater than 30%. The different cell subpopuplations from MM patients BM were not separated, but they were identified by flow cytometry using a suitable combination of antibodies: anti-CD64-FITC, anti-CD34-PE, anti-CD56-APC, anti-CD38-APC-H7, and anti-CD45-Pacific Blue (BD Biosciences, San Jose, Calif.).
Further, cell viability of bone marrow cell populations from patients was assessed by flow cytometry using 7-amino-actinomycin D [(7-AAD), BD Biosciences] together with a combination of monoclonal antibodies against myeloma-associated antigens (anti-CD56-APC, anti-CD45-Pacific Blue, and anti-CD38-APC-H7 [BD Biosciences]) and antibodies to discriminate the granulomonocytic (anti-CD64-FITC) and lymphocytic (anti-CD45-Pacific Blue) populations. Cells were incubated for 15 minutes at room temperature in the dark with suitable antibodies and 7-AAD, and after washing a total of 100 000 cells were acquired on FACSCanto II flow cytometer (BD Biosciences). Fluorescent intensity was quantified and analyzed using Infinicyt™ Software (Cytognos, Salamanca, Spain). Additionally, cell viability of MM cell lines and the peripheral blood CD34+, CD3+ and CD19+ cell populations from healthy donors was also analyzed by flow cytometry using 7-AAD, with the same protocol above described.
Once determined the antiproliferative effect of cannabinoids on tumor cells, both primary and cell lines, our aim was to test whether or not these drugs could also affect the viability of the counterpart normal cells, both normal residual populations from bone marrow samples obtained from MM patients as well as hematopoietic stem cells (CD34+) from healthy donors. […] Granulocytes and lymphocytes, were also unaffected by both cannabinoids, except for the lymphocytes at the highest doses tested, 50 uM for WIN-55 and 1 mM for JWH-133 (FIG. 2a,b).

[4] = tested on: myeloma plasma cells (MPCs); test: Ex vivo viability of myeloma plasma cells from bone marrow of MM patients (flow cytometry, 7-AAD); assay type: cell-based, human
Text: as §1, §2

| Structure (SMILES) | cell viability of blasts from AML patients (blasts from AML patients) | viability of granulocytes (Granulocytes) | cell viability of CD34+ hematopoietic stem cells [1] | cell viability of KG1 and HL60 cell lines as compared to untreated control cells ([2]; 18 h) | concentration from which the cell viability decrease occurs with statistically significant data [2] [µM] | viability of B-cells (B-cells (CD19+)) | cell viability of hematopoietic stem cells (CD34+) [3] | viability of lymphocytes (lymphocytes) | dose at which lymphocytes were affected (highest dose tested) (lymphocytes) [mM] | viability of MPCs ([4]; less pronounced as compared to WIN-55) | most sensitive AML cell line ([2]; 18 h) | decrease in cell viability of MPCs as compared to control (vehicle-treated) cells ([4]; 50 uM, bone marrow of MM patients) |
| --- | --- | --- | --- | --- | --- | --- | --- | --- | --- | --- | --- | --- |
| CCCC(C)(C)c1ccc2c(c1)OC(C)(C)[C@@H]1CC=C(C)C[C@@H]21 [JWH-133, (6aR,10aR)-3-(1,1-Dimethylbutyl)-6a,7,10,10a-tetrahydro-6,6,9-trimethyl-6H-dibenzo [b,d] pyran] | reduce the cell viability | unaffected | remains unaffected | significantly reduced | ≥ 500 | decreased viability | remained unaffected | unaffected | 1 | decreased viability |  |  |
| CS(=O)(=O)O.Cc1c(C(=O)c2cccc3ccccc23)c2cccc3c2n1[C@H](CN1CCOCC1)CO3 [WIN-55, (R)-(+)-[2,3-dihydro-5-methyl-3-(4-morpholinylmethyl)-pyrrolo-[1,2,3]-1,4-benzoxazin-6-yl]-1-naphthalenylmethanone mesylate] | reduce the cell viability | unaffected | remains unaffected | significantly reduced | ≥ 500 | decreased viability | remained unaffected | unaffected | 0.05 |  | HL60 was the most sensitive | up to 85% |
